# In PMC6680226, “Peptoid Efficacy against Polymicrobial Biofilms Determined by Using Propidium Monoazide‐Modified Quantitative PCR” (Chembiochem, 2016):
# Columns and labels:
# [1] = test system: C. albicans (NCTC 3179) biofilm; assay: Crystal violet assay, C. albicans monospecies biofilm; format: cell-based, Candida albicans; conditions: peptoid 100 μM, 24 h treatment of 4 h biofilm; n=3
# Experimental: (§1) Microorganism strains and growth conditions: C. albicans (NCTC 3179) was subcultured aerobically on Sabouraud agar plates, prepared by using Sabouraud dextrose powder and agar (Oxoid, ThermoFisher) and propagated in yeast peptone dextrose broth. E. coli (ATCC 29522) and S. aureus (NCTC 6571) were grown on blood agar plates (Fanin, Dublin, Ireland) and propagated in brain heart infusion (BHI) broth (Oxoid, ThermoFisher).
# (§2) Preparation and treatment of single‐species biofilms: Overnight cultures of C. albicans were washed and resuspended (1.0×10^6 cells per mL) in RPMI‐1640 (Sigma–Aldrich). Overnight cultures of S. aureus or E. coli were washed and resuspended (5.0×10^6 cells per mL) in BHI broth. Samples (100 μL) were added to microtitre plate wells (Thermo Fisher Scientific), and a biofilm was allowed to form for 4 h. Wells were washed with PBS (3×200 μL) to facilitate removal of planktonic cells, and the biofilms were then treated with 1–18 (100 μM in the appropriate medium). Plates were incubated for a further 24 h to allow biofilm maturation. After removal of planktonic cells by washing, biofilms were quantified by the crystal violet assay or by PMA‐qPCR.
# (§3) Biofilm quantification by crystal violet assay: Washed biofilms were fixed with methanol (100 μL) for 10 min. Following removal of methanol, the wells were air dried and stained with crystal violet solution (Clin‐Tech, Guildford, UK) for 20 min at room temperature. Excess stain was removed by washing, then the plate was air‐dried and bound crystal violet was re‐solubilised in acetic acid (33 %, 160 μL) prior to reading at 570 nm in a GENios microtitre plate reader (Tecan, Zürich, Switzerland).
# [2] = test system: S. aureus (NCTC 6571) biofilm; assay: Crystal violet assay, S. aureus monospecies biofilm; format: cell-based, Staphylococcus aureus; conditions: peptoid 100 μM, 24 h treatment of 4 h biofilm; n=3
# Experimental: as §1, §2, §3
# [3] = test system: E. coli (ATCC 29522) biofilm; assay: Crystal violet assay, E. coli monospecies biofilm; format: cell-based, Escherichia coli; conditions: peptoid 100 μM, 24 h treatment of 4 h biofilm; n=3
# Experimental: as §1, §2, §3
# [4] = test system: C. albicans monospecies biofilm; assay: PMA-qPCR viable cell number, C. albicans monospecies biofilm; format: cell-based, Candida albicans; conditions: peptoid 100 μM, 24 h; n=3
# Experimental: as §2
# (§4) Biofilm quantification by PMA‐modified qPCR: In order to determine the bactericidal and fungicidal activity of peptoids against single‐species and polymicrobial biofilms, the biofilms were detached from the microtitre plate wells prior to quantification. The wells were washed as above, then BHI broth (100 μL) was added and the plate was sealed. Biofilm detachment was achieved by sonication for 5 min in an ultrasonic bath (Dawe, Hayes, Middlesex, UK). The remaining cells were then collected in BHI (80 μL). […]
# (§5) Generation of standard curves for PMA‐qPCR: For quantification of C. albicans, S. aureus and E. coli in single‐species and polymicrobial biofilms, DNA standards were prepared by extraction of DNA from planktonic organisms with the microLYSIS‐Plus kit and purification with a DNeasy kit (Qiagen). DNA standards (10^1–10^6 cells) were used in PMA‐qPCR assays to generate standard curves from which the numbers of living organisms within the biofilms could be determined.
# [5] = test system: S. aureus monospecies biofilm; assay: PMA-qPCR viable cell number, S. aureus monospecies biofilm; format: cell-based, Staphylococcus aureus; conditions: peptoid 100 μM, 24 h; n=3
# Experimental: as §2
# (§6) Biofilm quantification by PMA‐modified qPCR: In order to determine the bactericidal and fungicidal activity of peptoids against single‐species and polymicrobial biofilms, the biofilms were detached from the microtitre plate wells prior to quantification. The wells were washed as above, then BHI broth (100 μL) was added and the plate was sealed. […]
# (§7) Generation of standard curves for PMA‐qPCR: For quantification of C. albicans, S. aureus and E. coli in single‐species and polymicrobial biofilms, DNA standards were prepared by extraction of DNA from planktonic organisms with the microLYSIS‐Plus kit and purification with a DNeasy kit (Qiagen). […]
# [6] = test system: E. coli monospecies biofilm; assay: PMA-qPCR viable cell number, E. coli monospecies biofilm; format: cell-based, Escherichia coli; conditions: peptoid 100 μM, 24 h; n=3
# Experimental: as §2, §4, §5
# [7] = test system: C. albicans in polymicrobial biofilm with S. aureus; assay: PMA-qPCR, C. albicans within C. albicans-S. aureus polymicrobial biofilm; format: cell-based, Candida albicans
# Experimental: (§8) Preparation and treatment of polymicrobial biofilms: Overnight cultures of C. albicans were prepared in microtitre plates as above, and allowed to adhere for 4 h to facilitate initial biofilm formation. Planktonic C. albicans cells were removed as above before the addition of S. aureus or E. coli (100 μL, 5.0×10^6 cells per mL). Bacteria were allowed to adhere to the C. albicans biofilms for 4 h to facilitate polymicrobial biofilm formation. Following a washing step, the biofilms were then treated with peptoid (10–100 μM), and incubated for a further 24 h to allow biofilm maturation. Wells were washed as above, and the polymicrobial biofilms were quantified by PMA‐modified qPCR.
# as §4, §5
# [8] = test system: S. aureus in polymicrobial biofilm with C. albicans; assay: PMA-qPCR, S. aureus within C. albicans-S. aureus polymicrobial biofilm; format: cell-based, Staphylococcus aureus; conditions: PMA-qPCR
# Experimental: as §8
# Biofilm quantification by PMA‐modified qPCR: In order to determine the bactericidal and fungicidal activity of peptoids against single‐species and polymicrobial biofilms, the biofilms were detached from the microtitre plate wells prior to quantification. The wells were washed as above, then BHI broth (100 μL) was added and the plate was sealed. Biofilm detachment was achieved by sonication for 5 min in an ultrasonic bath (Dawe, Hayes, Middlesex, UK). The remaining cells were then collected in BHI (80 μL). PMA (20 μL, 2 mM in broth;47 Biotium, Fremont, CA) was added to the biofilm suspensions […] and incubated (37 °C, 5 min) prior to photoactivation with a broad‐spectrum LED flood light (60 LED, 0.1 W) placed 15 cm from the tubes (mixed by inversion during the 20 min photoactivation step).48 DNA was extracted by using a microLYSIS‐Plus kit (Microzone, Haywards Heath, UK), and qPCR was performed in a Mx3005P qPCR System (Agilent Technologies).49, 50, 51 See the Tables in the Supporting Information.
# as §5
# [9] = test system: C. albicans in polymicrobial biofilm with E. coli; assay: PMA-qPCR, C. albicans within C. albicans-E. coli polymicrobial biofilm; format: cell-based, Candida albicans
# Experimental: as §8, §6, §7
# [10] = test system: E. coli in polymicrobial biofilm with C. albicans; assay: PMA-qPCR, E. coli within C. albicans-E. coli polymicrobial biofilm; format: cell-based, Escherichia coli
# Experimental: as §8, §6, §7
# HepG2 = assay: alamarBlue cytotoxicity assay, HepG2 cells
# Experimental: (§9) Peptoid cytotoxicity studies: All 18 peptoids were tested for cytotoxicity against HepG2 epithelial (Sigma–Aldrich) and HaCaT keratinocyte (ThermoFisher) cell lines, Cytotoxicity analyses were performed in Costar 96‐well plates (Thermo Fisher Scientific) with alamarBlue (Invitrogen/Thermo Fisher Scientific) for cell viability detection as described by the manufacturer. HepG2 and HaCaT cells were grown at 37 °C under CO2 (5 %) in DMEM (high glucose) supplemented with heat‐inactivated foetal bovine sera (FBS, 10 %; Biosera, Uckfield, UK) and penicillin/streptomycin (1 %). Cells were counted in a Neubauer Improved Haemocytometer. HepG2 or HaCaT cells were seeded 24 h prior to treatment in 96‐well plates (2×10^4 cells per well in 100 μL). After 24 h, cells were incubated in triplicate with a dilution series of compound (2–100 μM from 5 mM stock solutions in DMSO) in the medium (50 μL) for 1 h. An aliquot (40 μL) was removed from each well, before the addition of medium (90 μL) followed by incubation for 24 h (37 °C, 5 % CO2). Then, alamarBlue (10 μL) was added to each well before incubation (2 h for Hep G2, 1 h for HaCaT) prior to assessing cell viability in a fluorescent plate reader (Biotek, Winooski, VT; λ ex=560 nm, λ em=600 nm). All data were measured in triplicate on a minimum of two occasions.
# (§10) Toxicity was determined using an alamarBlue® cytotoxicity assay.
# HaCaT = assay: alamarBlue cytotoxicity assay, HaCaT keratinocytes
# Experimental: as §9, §10
# [11] = alamarBlue viability, 2-100 μM from DMSO stock, 1 h with compound then 24 h incubation at 37 °C, fluorescence, triplicate on a minimum of two occasions
substance,measurement,setting,value
(NahNspeNspe)3 [Peptoid 17],"Efficacy against C. albicans monospecies biofilm (biomass, crystal violet)",[1],amongst the most efficacious
same,"Efficacy against S. aureus monospecies biofilm (biomass, crystal violet)",[2],amongst the most efficacious
same,"Efficacy against E. coli monospecies biofilm (biomass, crystal violet)",[3],amongst the most efficacious
same,"Reduction in viable cell number, C. albicans monospecies biofilm (PMA-qPCR)",[4],still caused a significant reduction in the fungal biofilm
same,"Reduction in viable cell number, S. aureus monospecies biofilm (PMA-qPCR)",[5],approximately two orders of magnitude
same,"Reduction in viable cell number, E. coli monospecies biofilm (PMA-qPCR)",[6],the most effective
same,Reduction in C. albicans cell number in mixed biofilm with S. aureus (PMA-qPCR),"[7]; peptoid 100 μM, 24 h, n=3",less susceptible
same,"Reduction in C. albicans cell numbers in cross-kingdom biofilm with S. aureus, concentration series","[7]; peptoid 10-100 μM, PMA-qPCR",the greatest reduction in cell numbers
same,Reduction of cell numbers of S. aureus in mixed-species biofilm,"[8]; peptoid 10 μM, 24 h",~100%
same,"Reduction in S. aureus cell numbers in cross-kingdom biofilm, concentration series",[8]; peptoid 10-100 μM,the greatest reduction in cell numbers
same,Reduction in C. albicans cell number in mixed biofilm with E. coli (PMA-qPCR),"[9]; peptoid 100 μM, 24 h, n=3",the most active
same,"Reduction in C. albicans cell numbers in cross-kingdom biofilm with E. coli, concentration series","[9]; peptoid 10-100 μM, PMA-qPCR",the greatest reduction in cell numbers
same,Reduction in E. coli cell number in mixed biofilm with C. albicans (PMA-qPCR),"[10]; peptoid 100 μM, 24 h, n=3",the most active
same,"Reduction in E. coli cell numbers in cross-kingdom biofilm, concentration series","[10]; peptoid 10-100 μM, PMA-qPCR",the greatest reduction in cell numbers
same,ED50 HepG2,HepG2; [11],> 100 µM
same,Toxicity to HepG2 cells (in words),"HepG2; alamarBlue, up to 100 μM",negligible toxicity
same,ED50 HaCaT,HaCaT; [11],> 100 µM
same,Toxicity to HaCaT cells (in words),"HaCaT; alamarBlue, up to 100 μM",negligible toxicity
